# Data from US10717716B2, “1,3,4-oxadiazole derivative compounds as histone deacetylase 6 inhibitor, and the pharmaceutical composition comprising the same” (Chong Kun Dang Pharmaceutical Corp., priority 2015, dated 2020).
# Biological target: T1, human recombinant HDAC6 (Homo sapiens, UniProt Q9UBN7)
# T1 construct: purchased Calbiochem 382180
# T1 sequence (Q9UBN7 1-1215): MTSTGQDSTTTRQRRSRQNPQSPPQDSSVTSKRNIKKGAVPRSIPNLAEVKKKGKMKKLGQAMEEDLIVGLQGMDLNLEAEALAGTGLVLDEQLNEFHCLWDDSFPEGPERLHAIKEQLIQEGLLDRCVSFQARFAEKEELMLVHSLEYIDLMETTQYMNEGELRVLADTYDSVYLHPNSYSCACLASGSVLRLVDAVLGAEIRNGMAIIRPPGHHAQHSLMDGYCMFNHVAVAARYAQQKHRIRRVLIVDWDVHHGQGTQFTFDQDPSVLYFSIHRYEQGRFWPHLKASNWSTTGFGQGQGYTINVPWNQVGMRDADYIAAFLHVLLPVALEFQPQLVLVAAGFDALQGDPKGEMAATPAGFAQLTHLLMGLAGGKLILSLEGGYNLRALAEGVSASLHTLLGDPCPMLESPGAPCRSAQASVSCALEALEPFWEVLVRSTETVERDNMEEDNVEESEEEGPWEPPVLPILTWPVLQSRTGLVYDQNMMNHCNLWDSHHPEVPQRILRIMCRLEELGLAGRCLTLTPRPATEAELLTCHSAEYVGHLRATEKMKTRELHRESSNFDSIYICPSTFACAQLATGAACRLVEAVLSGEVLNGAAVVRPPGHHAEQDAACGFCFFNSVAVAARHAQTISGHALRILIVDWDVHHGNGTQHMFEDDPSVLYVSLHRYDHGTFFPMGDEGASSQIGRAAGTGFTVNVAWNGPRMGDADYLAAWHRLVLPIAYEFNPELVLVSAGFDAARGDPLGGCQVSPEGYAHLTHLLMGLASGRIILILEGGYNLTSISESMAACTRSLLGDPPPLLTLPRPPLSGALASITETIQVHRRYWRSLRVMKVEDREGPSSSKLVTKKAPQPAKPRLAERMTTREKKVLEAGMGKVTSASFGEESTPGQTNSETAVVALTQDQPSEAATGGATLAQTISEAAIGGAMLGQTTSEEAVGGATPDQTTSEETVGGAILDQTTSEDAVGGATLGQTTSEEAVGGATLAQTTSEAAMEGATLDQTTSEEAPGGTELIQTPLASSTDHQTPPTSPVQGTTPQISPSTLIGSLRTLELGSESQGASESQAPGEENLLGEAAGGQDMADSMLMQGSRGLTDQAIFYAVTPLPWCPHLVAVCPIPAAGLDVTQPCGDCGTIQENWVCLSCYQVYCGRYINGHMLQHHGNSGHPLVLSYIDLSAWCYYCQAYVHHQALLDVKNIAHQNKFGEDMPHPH
# Assay: HDAC6 enzyme activity inhibition assay (HDAC Fluorimetric Drug Discovery Kit)
# Type: biochemical
# Conditions: for HDAC6 selectivity (fold): HDAC6 over HDAC1; for IC50: human recombinant HDAC6, same protocol as HDAC1, read-out: HDAC6
# In short: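 Fluorimetric deacetylase assay: 5-fold serial compound dilutions, 0.3 μg recombinant human enzyme (HDAC1 or HDAC6, same protocol), 10 μM Fluor de Lys-SIRT1 substrate, 60 min at 30 °C. Signal developed 30 min, measured at 360/460 nm; IC50 values derived.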
SMILES,HDAC6 selectivity (fold),IC50
"O=C(N1CCS(=O)(=O)CC1)N(Cc1ccc(-c2nnc(C(F)F)o2)cc1F)c1ccc(CN2CCC(F)(F)C2)cc1 [Compound 21915, N-(4-(5-(difluoromethyl)-1,3,4-oxadiazol-2-yl)-2-fluorobenzyl)-N-(4-((3,3-difluoropyrrolidin-1-yl)methyl)phenyl)thiomorpholine-4-carboxamide 1,1-dioxide]",62 fold,160 nM
"O=C(N1CCS(=O)(=O)CC1)N(Cc1ccc(-c2nnc(C(F)F)o2)cc1F)c1ccc(CN2CCC(F)(F)CC2)cc1 [Compound 21916, N-(4-(5-(difluoromethyl)-1,3,4-oxadiazol-2-yl)-2-fluorobenzyl)-N-(4-((4,4-difluoropiperidin-1-yl)methyl)phenyl)thiomorpholine-4-carboxamide 1,1-dioxide]",43 fold,232 nM
"CN(C)[C@@H]1CCN(Cc2ccc(N(Cc3ccc(-c4nnc(C(F)F)o4)cc3F)C(=O)N3CCS(=O)(=O)CC3)cc2)C1 [Compound 21917, (R)—N-(4-(5-(difluoromethyl)-1,3,4-oxadiazol-2-yl)-2-fluorobenzyl)-N-(4-((3-(dimethylamino)pyrrolidin-1-yl)methyl)phenyl)thiomorpholine-4-carboxamide 1,1-dioxide]",151 fold,66 nM
"O=C(N1CCS(=O)(=O)CC1)N(Cc1ccc(-c2nnc(C(F)F)o2)cc1F)c1ccc(CN2CCOCC2)cc1 [Compound 21918, N-(4-(5-(difluoromethyl)-1,3,4-oxadiazol-2-yl)-2-fluorobenzyl)-N-(4-(morpholinomethyl)phenyl)thiomorpholine-4-carboxamide 1,1-dioxide]",52 fold,193 nM
"O=C(N1CCS(=O)(=O)CC1)N(Cc1ccc(-c2nnc(C(F)F)o2)cc1F)c1ccc(CN2CCCCC2)cc1 [Compound 21919, N-(4-(5-(difluoromethyl)-1,3,4-oxadiazol-2-yl)-2-fluorobenzyl)-N-(4-(piperidin-1-ylmethyl)phenyl)thiomorpholine-4-carboxamide 1,1-dioxide]",28 fold,357 nM
"O=C(N1CCS(=O)(=O)CC1)N(Cc1ccc(-c2nnc(C(F)F)o2)cc1F)c1ccc(OC2CCN(Cc3ccccc3)CC2)cc1 [Compound 21924, N-(4-((1-benzylpiperidin-4-yl)oxy)phenyl)-N-(4-(5-(difluoromethyl)-1,3,4-oxadiazol-2-yl)-2-fluorobenzyl)thiomorpholine-4-carboxamide 1,1-dioxide]",47 fold,213 nM
C[C@@H]1CN(Cc2ccccc2)C[C@H](C)N1Cc1ccc(N(Cc2ccc(-c3nnc(C(F)F)o3)cc2F)C(=O)N2CCS(=O)(=O)CC2)cc1 [Compound 21925],12 fold,829 nM
C[C@@H]1CN(Cc2ccc(N(Cc3ccc(-c4nnc(C(F)F)o4)cc3F)C(=O)N3CCS(=O)(=O)CC3)cc2)C[C@H](C)N1Cc1ccccc1 [Compound 21926],28 fold,356 nM
"O=C(N1CCOCC1)N(Cc1ccc(-c2nnc(C(F)F)o2)cc1F)c1ccc(F)c(Cl)c1 [Compound 21929, N-(3-chloro-4-fluorophenyl)-N-(4-(5-(difluoromethyl)-1,3,4-oxadiazol-2-yl)-2-fluorobenzyl)morpholine-4-carboxamide]",176 fold,57 nM
"O=C(N1CCOCC1)N(Cc1ccc(-c2nnc(C(F)(F)F)o2)cc1F)C12CC3CC(CC(C3)C1)C2 [Compound 21931, N-((3s,5s,7s)-adamantan-1-yl)-N-(2-fluoro-4-(5-(trifluoromethyl)-1,3,4-oxadiazol-2-yl)benzyl)morpholine-4-carboxamide]",6 fold,1740 nM
"O=C(N1CCOCC1)N(Cc1ccc(-c2nnc(C(F)F)o2)cc1F)CC12CC3CC(CC(C3)C1)C2 [Compound 21932, N-(((3r,5r,7r)-adamantan-1-yl)methyl)-N-(4-(5-(difluoromethyl)-1,3,4-oxadiazol-2-yl)-2-fluorobenzyl)morpholine-4-carboxamide]",15 fold,684 nM
"O=C(N1CCOCC1)N(Cc1ccc(-c2nnc(C(F)(F)F)o2)cc1F)CC12CC3CC(CC(C3)C1)C2 [Compound 21933, N-(((3r,5r,7r)-adamantan-1-yl)methyl)-N-(2-fluoro-4-(5-(trifluoromethyl)-1,3,4-oxadiazol-2-yl)benzyl)morpholine-4-carboxamide]",4 fold,2410 nM
"CCN1C[C@@H](C)N(Cc2ccc(N(Cc3ccc(-c4nnc(C(F)F)o4)cc3F)C(=O)N3CCS(=O)(=O)CC3)cc2)[C@@H](C)C1 [Compound 21934, N-(4-(5-(difluoromethyl)-1,3,4-oxadiazol-2-yl)-2-fluorobenzyl)-N-(4-(((2R,6S)-4-ethyl-2,6-dimethylpiperazin-1-yl)methyl)phenyl)thiomorpholine-4-carboxamide 1,1-dioxide]",15 fold,667 nM
"CCN1[C@H](C)CN(Cc2ccc(N(Cc3ccc(-c4nnc(C(F)F)o4)cc3F)C(=O)N3CCS(=O)(=O)CC3)cc2)C[C@@H]1C [Compound 21935, N-(4-(5-(difluoromethyl)-1,3,4-oxadiazol-2-yl)-2-fluorobenzyl)-N-(4-(((3S,5R)-4-ethyl-3,5-dimethylpiperazin-1-yl)methyl)phenyl)thiomorpholine-4-carboxamide 1,1-dioxide]",38 fold,265 nM
"O=C(N1CCN(C2COC2)CC1)N(Cc1ccc(-c2nnc(C(F)F)o2)cc1)c1cccc(F)c1 [Compound 21936, N-(4-(5-(Difluoromethyl)-1,3,4-oxadiazol-2-yl)benzyl)-N-(3-fluorophenyl)-4-(oxetan-3-yl)piperazine-1-carboxamide]",91 fold,110 nM
"O=C(N1CCN(C2COC2)CC1)N(Cc1ccc(-c2nnc(C(F)F)o2)cc1F)c1cccc(F)c1 [Compound 21937, N-(4-(5-(Difluoromethyl)-1,3,4-oxadiazol-2-yl)-2-fluorobenzyl)-N-(3-fluorophenyl)-4-(oxetan-3-yl)piperazine-1-carboxamide]",153 fold,65 nM
"O=C(N1CCN(C2COC2)CC1)N(Cc1ccc(-c2nnc(C(F)F)o2)cn1)c1cccc(F)c1 [Compound 21938, N-((5-(5-(Difluoromethyl)-1,3,4-oxadiazol-2-yl)pyridin-2-yl)methyl)-N-(3-fluorophenyl)-4-(oxetan-3-yl)piperazine-1-carboxamide]",122 fold,82 nM
"O=C(N1CCN(C2COC2)CC1)N(Cc1ccc(-c2nnc(C(F)F)o2)cc1)c1ccc(F)cc1 [Compound 21939, N-(4-(5-(Difluoromethyl)-1,3,4-oxadiazol-2-yl)benzyl)-N-(4-fluorophenyl)-4-(oxetan-3-yl)piperazine-1-carboxamide]",62 fold,161 nM
"O=C(N1CCN(C2COC2)CC1)N(Cc1ccc(-c2nnc(C(F)F)o2)cc1F)c1ccc(F)cc1 [Compound 21940, N-(4-(5-(Difluoromethyl)-1,3,4-oxadiazol-2-yl)-2-fluorobenzyl)-N-(4-fluorophenyl)-4-(oxetan-3-yl)piperazine-1-carboxamide]",118 fold,85 nM
"O=C(N1CCN(C2COC2)CC1)N(Cc1ccc(-c2nnc(C(F)F)o2)cc1)c1cccc(Cl)c1 [Compound 21942, N-(3-Chlorophenyl)-N-(4-(5-(difluoromethyl)-1,3,4-oxadiazol-2-yl)benzyl)-4-(oxetan-3-yl)piperazine-1-carboxamide]",160 fold,62 nM
"O=C(N1CCN(C2COC2)CC1)N(Cc1ccc(-c2nnc(C(F)F)o2)cn1)c1cccc(Cl)c1 [Compound 21944, N-(3-Chlorophenyl)-N-((5-(5-(difluoromethyl)-1,3,4-oxadiazol-2-yl)pyridin-2-yl)methyl)-4-(oxetan-3-yl)piperazine-1-carboxamide]",201 fold,50 nM
